Source: US9139551B2, “Preparation of a new class of water-soluble ammonium 2,3-dihydroxy-5-((2R,3R)-3,5,7-trihydroxy-4-oxochroman-2-yl) phenolates and their biological activity of alcohol elimination” (priority 2014, dated 2015)

Experiments:
[1] = system: Balb/C mice; experiment: Anti-alcoholism test (agent 30 min after alcohol); format: in vivo; settings: 2 mg/kg gavage 30 min after 30% ethanol
Source text: Anti-Alcoholism Tests • Groups design and treatment before experiment are as the same as that in Deintoxication test. […]

[2] = Solubility in water
[3] = system: Balb/C mice; experiment: Plasma EtOH concentration assay; format: in vivo; settings: intragastric 2 mg/kg
Procedure: Plasma EtOH Concentration Assay. • Blood samples from the tail vein of mice at different time points (0, 15, 30, 45, 60, 90, 120, 240, 480 and 720 minutes) after EtOH (30% ethanol, 0.2 ml/kg bw) or TDHM (2 mg/kg bw), PDHM (2 mg/kg bw) or DHM (2 mg/kg bw) gavage were collected for plasma EtOH concentrations (plasma [EtOH]) assays. (“BW” or “bw”: body weight) • Briefly, the Balb/C mice were put into a restraint tube and the tail was warmed at 37° C. The tail vein at the tip of the tail was punched with a sharp blade. Approximately 0.2 ml venous blood was dropped to a capillary blood collection tube containing lithium heparin (Ram Scientific). Blood samples were centrifuged at 2500 rpm for 20 min. The supernatant was collected and stored at −80° C. until assay. The EtOH content of each blood sample was measured in duplicate along with EtOH standards using the alcohol oxidase reaction procedures (EnzyChrom™ Ethanol Acid Assay Kit, ECET-100) (Liang et al., 2007). The sample preparations were the same as described above.

[4] = system: Balb/C mice; experiment: Climbing net test; format: in vivo; settings: 2 mg/kg gavage 30 min before alcohol
Procedure: Climbing Net Test • Groups design and treatment before experiment are as the same as that in deintoxication test. […] 30 minutes later all mice administrated alcohol (liquid Erguotou, ethonol concentration was diluted to 30%) 0.2 mL/kg BW and placed on a vertical metal net and measured the time when mice climbed on net.

[5] = system: Balb/C mice; experiment: Deintoxication test (agent 30 min before alcohol); settings: 2 mg/kg gavage 30 min before 30% ethanol

Structure (SMILES): O=C1c2c(O)cc(O)cc2O[C@H](c2cc(O)c(O)c(O)c2)[C@H]1O [DHM, dihydromyricetin, reference compound]
- Sleep time M ± SD [1]: 138.17 ± 33.73 min
- Tolerance time M ± SD [1]: 18.29 ± 10.07 min
- Rate of drunk ([1]; 20 mice): 0%
- solubility [2]: ≤ 264 µg/mL
- blood alcohol concentration vs control group treated with saline [3]: significantly decreased
- climbing time vs normal control mice [4]: significantly prolonged
- climbing ([4]; vertical metal net): 329.75 ± 76.46 min
- Sleep time M ± SD [5]: 135.71 ± 25.25 min
- Tolerance time M ± SD [5]: 25 ± 7.29 min
- Dead number ([5]; 20 mice): 2 piece
- Rate of drunk ([5]; 20 mice): 10%
